Source: ChEMBL document CHEMBL1201862, “PubChem BioAssay data set” (2004)
Where “and” joins values, the source holds several entries; their conditions need not be identical. Identical values can stand only once.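 Step 1: Grow cells in 96-well plates. Step 2: Expose to compound for 48 hours at 5 concentrations. Step 3: Interpolate endpoints linearly; if unreached, use highest concentration. GI50 marks 50% less growth.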 Calls of active or inactive are those of the source. Rule as the data show it: active = GI50 up to about 1.1 µM and inactive = higher. Where a SMILES comes first, the peptide text is derived from it. [ ]: non-standard residue; d: D form. The star is where a group is joined. Iva = CC[C](C)(N)C(=O)O; Boc = CC(C)(C)OC(=O)*; X54 = C1CCC(=NO*)C1

Columns and labels:
Assay in all cases: growth of human tumour cells (NCI), 48 h
[1] = tested on: MCF7
[2] = tested on: DU-145
[3] = tested on: PC-3
[4] = tested on: MDA-N
[5] = tested on: NCI/ADR-RES
[6] = tested on: MDA-MB-435
[7] = tested on: DMS-273
[8] = tested on: SNB-78
[9] = tested on: 786-0

Measured: GI50

CC(Oc1ccc(Oc2cnc3ccc(Cl)cc3n2)cc1)C(=O)O (stereo not drawn)
inactive: [1] 37.3 µM and 84.3 µM | [2] > 88.9 µM

COC(=O)/C=C\Sc1ccn(/C=C\C(=O)OC)c(=S)n1
inactive: [3] 19.1 µM | [4] 27.3 µM | [5] 19.6 µM | [1] 14.3 µM | [6] 23.1 µM | [2] > 100 µM

CCC(C)(NC(=O)C(C)NC(=O)OC(C)(C)C)C(=O)NC(C)C(=O)NC(C)(CC)C(=O)ON=C1CCCC1 (stereo not drawn) (Boc-A[Iva]A[Iva]-X54; configuration not given here)
inactive: [3] > 100 µM | [4] > 100 µM | [5] > 100 µM | [1] > 100 µM | [6] > 100 µM | [2] > 100 µM

COc1ncnc2c(Cl)c(C(O)c3ccccc3)c(Cl)cc12 (stereo not drawn)
inactive: [3] 27.4 µM | [4] 5.16 µM | [5] 28 µM | [1] 31.4 µM | [6] 5.57 µM | [2] 60.4 µM

COc1cc2cc[n+]3c(C)c4cc(OC)c(OC)cc4c([O-])c3c2cc1OC
inactive: [7] 53.6 µM | [8] > 100 µM

OC(c1ccc(Br)cc1)(c1cccs1)C1CC1 (stereo not drawn)
inactive: [3] 22.8 µM | [4] 20.7 µM | [5] 25.1 µM | [1] 28.2 µM | [9] 18.3 µM | [6] 18.1 µM | [2] 26.1 µM

O=C1CCC[C@]2(CCC[C@@H](O)C2)N1
inactive: [3] > 100 µM | [4] > 100 µM | [5] > 100 µM | [1] > 100 µM | [9] > 100 µM | [2] > 100 µM

C[C@@H]1C[C@]2(C[C@@H](C)[C@H]3C(C[C@@]4(C)CCC[C@@H]5C6=C[C@H](CCC34C)OC6=CC(=O)OC5(C)C)O2)OC1=O (stereo partly drawn)
inactive: [7] > 51.5 µM | [5] > 51.5 µM | [8] > 51.5 µM | [1] > 51.5 µM

CCOC(=O)c1ccc(N2C(=O)/C(=C/c3ccc(N(CCC#N)CCC#N)cc3)N=C2c2cc([N+](=O)[O-])ccc2Cl)cc1
inactive: [7] > 100 µM | [8] > 100 µM

CCOC(=O)C1=C(C)N(C2OC(COC(C)=O)C(OC(C)=O)C(OC(C)=O)C2OC(C)=O)C(=O)NC1c1ccccc1 (stereo not drawn)
inactive: [8] > 100 µM

O=C1C(CO)=C[C@H](O)[C@H]2O[C@@H]12
inactive: [7] 185 µM | [5] 162 µM | [8] 186 µM | [1] 126 µM

Cc1nn(-c2ccccc2)c(S)c1C(=O)c1ccccc1
inactive: [7] 40.1 µM | [8] 24.4 µM

CC(=O)c1ccc(Oc2ccc(/C(C)=N\N=C(N)N)cc2)cc1
inactive: [8] 2.8 µM

CC1=NN(C(=O)c2ccc(C)cc2)C(=O)C1/N=N/c1ccccc1C(=O)O (stereo not drawn)
inactive: [7] > 100 µM | [5] > 100 µM | [8] > 94 µM | [1] > 100 µM

CSc1cc(=O)n2c3ccccc3c3ccnc1c32
inactive: [7] 79.6 µM | [5] 73.8 µM | [8] > 70.8 µM | [1] 34.6 µM

CCCCCCCCCCCCCCCc1ccc(OCC(O)CO)cc1 (stereo not drawn)
inactive: [7] 17.7 µM | [8] 29.7 µM

OCC(O)COc1ccc(Br)cc1 (stereo not drawn)
inactive: [7] > 100 µM

COc1cc(C(O)(CC#N)c2cc3c(cc2Br)OCO3)cc(OC)c1OC (stereo not drawn)
inactive: [3] 28.1 µM | [4] 5.07 µM | [5] 40 µM | [1] 14.7 µM | [6] 3 µM | [2] 33.5 µM

COc1ccc(OC)c(/C=C/C(=O)C(C)(C)C)c1
inactive: [7] 21.1 µM | [9] 19.5 µM
